Test results as given in patent publication US20260325643A1, “METHOD AND PHARMACEUTICAL COMPOSITION FOR VISIBLE LIGHT-INDUCED CORNEAL CROSSLINKING WITH RUTHENIUM COMPOUNDS FOR THE TREATMENT OF EYE DISORDERS” (KOC UNIVERSITESI, priority 2022, published 2026).

Tests used:
LMSCs and HCECs = experiment: Annexin V-FITC/PI flow cytometry; assay type: cell-based, human; settings: 1 hour treatment; compared with ruthenium-SPS treated cells
Method: The effects of [Ru(bpy)3]^2+ and SPS solutions on cell viability and apoptosis were examined by Annexin-V/propidium iodide (PI) staining in flow cytometry. LMSCs and HCECs (10^5 cells/well) were plated in 6-well culture dishes. [Ru(bpy)3]^2+ and SPS in various concentrations (1 mM and 10 mM) were added to the cell culture medium. The cells were incubated for 1 hour at 37 °C. After the treatment with the solutions, the cells were collected and washed with PBS at 4 °C. The cells were resuspended in 1× binding buffer at a 1×10^5 cells/ml density. 100 μl of the cell suspension were labeled with 2.5 μl of fluorochrome-conjugated Annexin V and 5 μl of PI according to the manufacturer's protocol (BioLegend, San Diego, CA, USA) and analyzed by using a flow cytometer (Attune N. T Flow Cytometer, Thermo Fisher Scientific, Waltham, MA, USA).
Annexin V-FITC and propidium iodide staining provide sensitive outcomes for detecting cellular apoptosis. While annexin V-FITC binds on the surface of cells that undergo programmed cell death, PI detects necrotic or late apoptotic cells characterized by loss of plasma and nuclear membrane integrity. Cells treated with [Ru(bpy)3]^2+ and/or SPS for 1 hour were harvested after treatment and stained with Annexin V-FITC and PI.

[1] = tested on: human corneal epithelial cells (HCECs) and limbal mesenchymal stem cells (LMSCs); experiment: Cell viability / cytotoxicity, HCECs and LMSCs taken together; assay type: cell-based; settings: Ruthenium or/and SPS
Text: Furthermore, the cytotoxic effects of Ruthenium and SPS compound on human corneal epithelial cells (HCECs) and limbal mesenchymal stem cells (LMSCs) were investigated to determine the ruthenium concentration and time needed for the cross-linking process. The relative viabilities of cells were detected by CellTiter-Glo® Luminescent Cell Viability Assay (Promega, Mannheim, Germany) detected the relative viabilities of cells, which is a method used to detect the number of viable cells depending on the amount of ATP in alive cells. […] (FIGS. 3A-3B)

cornea = settings: background, cited from earlier work; for hardness / stiffness of cross-linked cornea: Rose Bengal/Green Light (532 nm) or riboflavin/UV-A
bovine corneas [2] = experiment: Rheological measurements of crosslinked corneas (time sweep); settings: 2 mM riboflavin, UV-A 365 nm, after 30 min
Method: (§1) For biomechanical experiments, bovine corneas were used. First the corneal epithelia were removed with a scalpel blade and 8 mm central corneal buttons were isolated from bovine eyes with a trephine blade (Katena, Parsippany, NJ, USA). After that, corneal buttons separated into three different experimental groups: • Ruthenium (Ru)-Sodium persulfate (SPS)/visible light, • Riboflavin/UV-A light, and • Control groups.
[Ru(bpy)3]^2+ and SPS solution was prepared in PBS via dissolving Tris(2,2′-bipyridyl)dichlororuthenium(II) hexahydrate (544981, Sigma-Aldrich, MO, USA) and sodium persulfate (216232, Sigma-Aldrich, MO, USA). Ru-SPS solution was prepared in two different concentrations: 0.001 M (1 mM) and 0.0001 M (0.1 mM) was dropped on corneal buttons and the samples were incubated for 5 min for the samples in the Ru-SPS experimental group. Then all solutions were removed, and 430 nm visible light (3 mW/cm^2) was applied to the samples for 40 min. […]
Rheological measurements were carried out in time sweep mode with 1 Hz frequency, 1% strain using TA Instruments AR/DHR series rheometer (New Castle, DE) equipped with two different light sources: visible light ([…]) and UV-A light (λ=365 nm). […] Storage and loss moduli profiles were recorded as a function of time continuously for 40 min at ambient conditions. […]

bovine corneas [3] = experiment: Uniaxial stress-strain test of corneal strips
Method: as §1
(§2) [Ru(bpy)3]^2+ and SPS solution was prepared in PBS via dissolving Tris(2,2′-bipyridyl)dichlororuthenium(II) hexahydrate (544981, Sigma-Aldrich, MO, USA) and sodium persulfate (216232, Sigma-Aldrich, MO, USA). Ru-SPS solution was prepared in two different concentrations: 0.001 M (1 mM) and 0.0001 M (0.1 mM) was dropped on corneal buttons and the samples were incubated for 5 min for the samples in the Ru-SPS experimental group. Then all solutions were removed, and 430 nm visible light (3 mW/cm^2) was applied to the samples for 40 min. To mimic the standard CXL corneal collagen crosslinking procedure for the riboflavin experimental group, 0.002 M (2 mM) riboflavin 5′-monophosphate solution (18167, Cayman Chemical, MI, USA) was dropped on corneal buttons and the samples were incubated for 5 min. Then riboflavin solution was removed, and 365 nm visible light (3 mW/cm^2) applied to the cornea samples for 40 min. No solution or light was applied to the corneas in the control group.
The stress-strain test was performed on a full-thickness minus the epithelium corneal strips dissected from the bovine corneas. The mechanical properties of all the samples were determined using force and displacement measurements. The initial cross-sectional area and the corresponding force measurements of each test sample were used to calculate the engineering stress. The maximum displacement at the breakage point of each sample was used to estimate the change in the length of each sample. This change in the length was related nominally to the initial length of the corresponding test sample to calculate the engineering strain. The modulus of elasticity and the ultimate tensile strength of each sample was then estimated by the engineering stress-strain curves. The ultimate tensile strength was defined as the peak value of stress on the stress-strain curve before the breakage point of the sample when being stretched. The linear regression analysis between the zero point and the point that equals 70% of the maximum stress for each sample was used to compute the modulus of elasticity. The modulus of elasticity is a material-dependent property such that it depends upon the internal structure and the bond strength between the atoms of each sample. Therefore, the modulus of elasticity remained similar for one sample type; however, it differed for other sample types. […]

bovine corneas [4] = experiment: UV & visible spectrophotometry of corneas; settings: PBS, UV (300-400) and visible (400-800); different crosslinking procedures
Method: Optical transmission and absorption tests were performed on de-epithelized bovine corneas for the UV and visible light spectrum. Control and crosslinked corneas were submerged in PBS, and their optical transmission was assessed using a UV-Vis. Spectrometer (Edinburgh Instruments Spectrofluorometer FS5). Transmittance spectra (% T) were collected from 300 to 800 nm at 1 nm increments. […] The results are illustrated in FIGS. 7A-7B.

[5] = obtained from previous literature [15, 16]; cited from earlier work
bovine corneas [6] = experiment: Corneal optical transparency and Lambert-Beer penetration distance
Method: The standard protocol for corneal crosslinking can only be applied in cases with a corneal thickness above 400 μm. When applied to thinner corneas, UV-A beam reaches the corneal endothelial cells resulting in endothelial toxicity and corneal edema. For this purpose, the Lambert-Beer formula was applied for optical transmittance results of both photoinitiator solutions (FIG. 6C). Corneal light transmittance was then calculated with the Lambert-Beer formula: […]
In this formula, A represents the optical absorbance of the sample, ε represents the molar attenuation coefficient of the photoinitiator, c is the concentration of the photoinitiator, and l is the total optical path length of the light. For these calculations, molar attenuation coefficients for each photoinitiators (10066 M^−1 cm^−1 for riboflavin and 14,600 M^−1 cm^−1 for tris(2,2′-bipyridyl)ruthenium(II)) obtained from previous literature.[15, 16] […]
Corneal optical transparencies were measured in corresponding light wavelengths for each experimental group. For the 2 mM riboflavin-based crosslinked corneas, average optical transparency in 365 nm was measured as 0.713±0.222. In the same conditions, the average optical transparency for 1 mM ruthenium-based crosslinked corneas was measured as 0.724±0.050 in 430 nm light wavelength, which is correlated with the riboflavin-based CXL procedure. […]

bovine corneas [7] = experiment: Osmotic stress (swelling) test; settings: 15% dextran-500 PBS overnight, then three hours in distilled water
Method: as §1
as §2, with “control group. […]” for “control group.”

bovine corneas [8] = experiment: Enzymatic digestion (collagenase) test of corneas; settings: 24 hours of digestion by collagenases
Method: as §1
as §2, with “control group. […]” for “control group.”

Row | resistance to enzymatic digestion (bovine corneas [8]) | Compound | cell death (Annexin V-FITC/PI) (LMSCs and HCECs) | cytotoxicity influence on viability of cells [1] | hardness / stiffness of cross-linked cornea (cornea) | depth of cross-linking effect (cornea; Rose Bengal/Green Light (532 nm)) | average storage modulus (bovine corneas [2]) [kPa] | stiffness compared to control (bovine corneas [3]; from modulus of elasticity) | increase of modulus of elasticity vs control (bovine corneas [3]; riboflavin-treated) | increase of ultimate tensile strength vs control (bovine corneas [3]; riboflavin-treated) | strain compared to control (bovine corneas [3]; stress-strain test) | optical absorbance of corneas, change after crosslinking (bovine corneas [4]) | optical transmission of corneas, change after crosslinking (bovine corneas [4]) | molar attenuation coefficient [5] [M⁻¹ cm⁻¹] | average optical transparency (bovine corneas [6]; 2 mM riboflavin-based crosslinked corneas, 365 nm) | mean distance traveled in the bovine cornea (bovine corneas [6]; Lambert-Beer formula applied to optical transmittance results) [μm] | healing time of corneal haze, in some eyes (cornea; riboflavin/UV-A) | swelling vs normal corneas (bovine corneas [7])
1 | – | O=S(=O)([O-])OOS(=O)(=O)[O-].[Na+].[Na+] [SPS, sodium persulfate] | higher degree of cell death than ruthenium-SPS treated cells | dose-dependent cytotoxicity | – | – | – | – | – | – | – | – | – | – | – | – | – | –
2 | – | O=C1OC2(c3cc(I)c(O)c(I)c3Oc3c2cc(I)c(O)c3I)c2c(Cl)c(Cl)c(Cl)c(Cl)c21 [Rose Bengal] | – | – | increased hardness | more superficial effect | – | – | – | – | – | – | – | – | – | – | – | –
3 | digested entirely after 24 hours | Cc1cc2nc3c(=O)[nH]c(=O)nc-3n(C[C@H](O)[C@H](O)[C@H](O)COP(=O)(O)O)c2cc1C [riboflavin, riboflavin 5′-monophosphate] | – | – | increased corneal stiffness | – | 92.88 | overall increasing stiffness | approximately 16% | approximately 16% | decreasing strain trend | did not change significantly | did not change significantly | 10066 | 0.713±0.222 | 719 | 6-12 months | less swelling
